The source of these data is patent US20050288377A1, “Use of calcimimetic as an adynamic bone disease related treatment” (priority 2004, published 2005).

One data set deals with ESRD subjects. The data set can be described thus: Study of ESRD subjects treated with Cinacalcet and HECTOROL (Table 3). The format is in vivo, human. The following applies: unlabelled summary line over patients 1-11. An excerpt: Table 3 provides the results of a study of several ESRD subjects treated with Cinacalcet and HECTOROL™ (Doxercalciferol synthetic Vitamin D). Pre and post treatment levels of total PTH, 1-84 PTH, 7-84 PTH, calcium, phosphate and alkaline phosphatase are provided together with the pre and post treatment ratio of 1-84 PTH/7-84 PTH and the pre and post treatment product of (calcium) x (phosphate).

The subject of data set [1] is parathyroid cancer patients. The data set can be described thus: PTH levels and ratio in parathyroid cancer patients receiving Cinacalcet HCl (Table 2). It counts as in vivo, human. The following applies: SCR or D1 visit: prior to Cinacalcet HCl treatment (baseline); hydrochloride. The text has this:
See M. R. Rubin, et al., “A Molecular Form of PTH Distinct From PTH (1-84) is Produced in Parathyroid Carcinoma” (J. Bone & Mineral Metab., forthcoming).

For data set [2], the system named is chronic kidney disease patients on dialysis. To be noted: product insert; cited from earlier work.
The next data set deals with 1-84 PTH/7-84 PTH ratio. The following applies: cited from earlier work.

Where “and” joins values, the source holds several entries; their conditions need not be identical. Equal entries are not always repeated. Structures can show the parent of a compound that is named as a salt. Where two headings read alike, the source gives them in different places.

As to `C[C@@H](NCCCc1cccc(C(F)(F)F)c1)c1cccc2ccccc12` [Cinacalcet HCl], in the data set with ESRD subjects (post treatment), the “Post CIP (7-84 PTH)” value is 342.2, the “Post Ca” value is recorded as 8.7, the “Post Phos” value was 5.6 and the Post alk phos is on record as 240.5. Further, in the data set with ESRD subjects (post treatment), the “Post-CAP (1-84 PTH)” value is 458.3, the “Post-Total (total PTH)” value is reported as 800.4 and the “Prot Ca xP” value is given as 49.2. Further, in the data set on ESRD subjects (pre treatment), the “Pre Ca” value is 9.5, the “Pre Ca xP” value is given as 55.7, the “Pre Phos” value is recorded as 5.9 and the Pre alk phos is 220.2. For the same compound, in the data set with ESRD subjects (pre treatment), the “Pre-CAP (1-84 PTH)” value is on record as 508.8, the “Pre-CIP (7-84 PTH)” value is listed as 355.3 and the “Pre-Total (total PTH)” value is 864.0. Also, the CPTH/TPTH in data set [1] is 1.5 and 1.6. Besides, the “risk for developing adynamic bone disease” value in data set [2] is given as “carries a risk for developing adynamic bone disease”.

Consider `C=C1/C(=C\C=C2/CCC[C@]3(C)[C@@H]([C@H](C)/C=C/[C@H](C)C(C)C)CC[C@@H]23)C[C@@H](O)C[C@@H]1O` [Hectarale, Doxercalciferol], for which the Ca in the data set with 1-84 PTH/7-84 PTH ratio (2.5 μgm/dose, Nov. 1 2001 (Ca Nov. 8)) is recorded as 8.1 mg/dL. Further, the PO4 in the data set with 1-84 PTH/7-84 PTH ratio (2.5 μgm/dose, Nov. 1 2001 (PO4 Nov.5-7)) is 5.7 mg/dL. For the same compound, in the data set with 1-84 PTH/7-84 PTH ratio (2.5 μgm/dose, Nov. 1 2001), the CAP is given as 1462 pgm/mL, the CAP/CIP was 6.74, the CIP was 217 pgm/mL and the “Ca × PO4” value was 46. For the same compound, the “Intact PTH” value in the data set on 1-84 PTH/7-84 PTH ratio (2.5 μgm/dose, Nov. 1 2001) is 1679 pgm/mL. Besides, the Ca with 1-84 PTH/7-84 PTH ratio (4 μgm/dose, Aug. 17 2001 (Ca Sept. 21)) is on record as 8.3 mg/dL. For the same compound, the PO4 in the data set with 1-84 PTH/7-84 PTH ratio (4 μgm/dose, Aug. 17 2001 (PO4 Sept. 21)) is on record as 7.0 mg/dL. In the data set on 1-84 PTH/7-84 PTH ratio (4 μgm/dose, Aug. 17 2001), the CAP was 1735 pgm/mL, the CAP/CIP is given as 0.95, the CIP is 1824 pgm/mL and the “Ca × PO4” value is on record as 58. Moreover, the “Intact PTH” value in the data set with 1-84 PTH/7-84 PTH ratio (4 μgm/dose, Aug. 17 2001) is 3559 pgm/mL.
